{
  "source": "patent US5925627A",
  "about": "“Use of NK-1 receptor antagonists for treating movement disorders” (Merck Sharp & Dohme Ltd., priority 1996, dated 1999)",
  "key": {"[1]": {"tested_on": "NK-1 receptor (foot tapping induced by NK-1 agonist GR73632)", "experiment": "Gerbil Foot-Tapping (Assay 2)", "format": "in vivo, Mongolian gerbil", "conditions": "Meriones unguiculatus, iv", "text": "CNS-penetrant NK-1 receptor antagonists for use in the present invention can be identified by their ability to inhibit foot tapping in gerbils induced by anxiogenic agents (such as pentagastrin) or central infusion of NK-1 receptor agonists such as GR73632, or caused by aversive stimulation such as foot shock or single housing, based on the method of Rupniak & Williams, Eur. J. Pharmacol., 1994, 265, 179.\nMale or female Mongolian gerbils (35-70 g) are anaesthetised by inhalation of an isoflurane/oxygen mixture to permit exposure of the jugular vein in order to permit administration of test compounds or vehicle in an injection volume of 5 ml/kg i.v. Alternatively, test compounds may be administered orally or by subcutaneous or intraperitoneal routes. A skin incision is then made in the midline of the scalp to expose the skull."}, "[2]": {"tested_on": "separation-induced vocalisations by guinea-pig pups", "experiment": "animal or person", "conditions": "Cavia porcellus, po, 4 h, read-out: guinea-pig vocalisation (4 hr. pre-treatment): ID50", "protocol": "Male and female guinea-pigs pups are housed in family groups with their mothers and littermates throughout the study. Experiments are commenced after weaning when the pups are 2 weeks old. Before entering an experiment, the pups are screened to ensure that a vigorous vocalisation response is reproducibly elicited following maternal separation. The pups are placed individually in an observation cage (55 cm×39 cm×19 cm) in a room physically isolated from the home cage for 15 minutes and the duration of vocalisation during this baseline period is recorded. […] On test days each pup receives an oral dose or an s.c. or i.p. injection of test compound or vehicle and is then immediately returned to the home cage with its mother and siblings for 30 to 60 minutes (or for up to 4 hours following an oral dose, dependent upon the oral pharmacokinetics of the test compound) before social isolation for 15 minutes as described above. […] Between 6 and 8 animals receive each test compound at each dose tested."}},
  "note": "Like-named read-outs stand apart in the source and are kept apart here.",
  "data": [
    {"smiles": "C[C@@H](O[C@H]1OCCN(Cc2n[nH]c(=O)[nH]2)[C@H]1c1ccc(F)cc1)c1cc(C(F)(F)F)cc(C(F)(F)F)c1", "note": "[2-(R)-(1-(R)-(3,5-bis(trifluoromethyl)phenyl)-ethoxy)-3-(S)-(4-fluorophenyl)-4-(3-(5-oxo-1H, 4H-1,2,4-triazolo)methyl)-morpholine]", "values": [
      {"measurement": "ED50", "setting": "[1]; 5 min, i.v. immediately prior to GR73632 challenge, read-out: gerbil foot-tapping (5 mins.): ID50", "value": 0.36, "unit": "mg/kg"},
      {"measurement": "ED50", "setting": "[1]; 24 hrs., i.v. 24 hours prior to central NK1 agonist challenge, read-out: gerbil foot-tapping (24 hrs.): ID50", "value": 0.33, "unit": "mg/kg"},
      {"measurement": "ED50", "setting": "[2]", "value": 0.73, "unit": "mg/kg"}
    ]}
  ]
}
